Several values for one entry are separate records, joined by “and”; a condition that tells them apart may be missing. Equal entries are not always repeated. Where two headings read alike, the source gives them in different places.
How the values were obtained:
[1] = molecular target: DNMT1 (Homo sapiens, UniProt P26358); assay: DNMT1 biochemical activity, breaklight assay and/or SPA assay
[2] = test system: erythroid progenitor cells (EPCs); assay: Fetal hemoglobin (HbF) ELISA in day 7 erythroid progenitor cells; assay type: cell-based, human; conditions: Homo sapiens, Erythroid progenitor cell, HbF ELISA, day 7 EPCs, 5 days; read-out: EPC ELISA (pEC50 category) (converted);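 also: for fetal hemoglobin induction normalized to vehicle-treated cells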
How it was run: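 Day 7 EPCs from human bone marrow CD34+ cells were plated at 1,000 cells/well in media with 3 U/mL rhEPO. They were exposed to a 22-point dilution ([…]) for 5 days at 37 °C. Lysate HbF was measured by sandwich ELISA (OD450) and normalized to DMSO control wells.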

[3] = binned activity in either the breaklight or the SPA assay
[4] = binned activity in either the breaklight or the SPA assay, read-out: DNMT1 BioChemical (pIC50 category) (converted)
[5] = breaklight assay and/or SPA assay, repeated experimental runs, read-out: average pIC50 against DNMT1 (converted)

Chain of DNMT1 (P26358 whole entry, looked up): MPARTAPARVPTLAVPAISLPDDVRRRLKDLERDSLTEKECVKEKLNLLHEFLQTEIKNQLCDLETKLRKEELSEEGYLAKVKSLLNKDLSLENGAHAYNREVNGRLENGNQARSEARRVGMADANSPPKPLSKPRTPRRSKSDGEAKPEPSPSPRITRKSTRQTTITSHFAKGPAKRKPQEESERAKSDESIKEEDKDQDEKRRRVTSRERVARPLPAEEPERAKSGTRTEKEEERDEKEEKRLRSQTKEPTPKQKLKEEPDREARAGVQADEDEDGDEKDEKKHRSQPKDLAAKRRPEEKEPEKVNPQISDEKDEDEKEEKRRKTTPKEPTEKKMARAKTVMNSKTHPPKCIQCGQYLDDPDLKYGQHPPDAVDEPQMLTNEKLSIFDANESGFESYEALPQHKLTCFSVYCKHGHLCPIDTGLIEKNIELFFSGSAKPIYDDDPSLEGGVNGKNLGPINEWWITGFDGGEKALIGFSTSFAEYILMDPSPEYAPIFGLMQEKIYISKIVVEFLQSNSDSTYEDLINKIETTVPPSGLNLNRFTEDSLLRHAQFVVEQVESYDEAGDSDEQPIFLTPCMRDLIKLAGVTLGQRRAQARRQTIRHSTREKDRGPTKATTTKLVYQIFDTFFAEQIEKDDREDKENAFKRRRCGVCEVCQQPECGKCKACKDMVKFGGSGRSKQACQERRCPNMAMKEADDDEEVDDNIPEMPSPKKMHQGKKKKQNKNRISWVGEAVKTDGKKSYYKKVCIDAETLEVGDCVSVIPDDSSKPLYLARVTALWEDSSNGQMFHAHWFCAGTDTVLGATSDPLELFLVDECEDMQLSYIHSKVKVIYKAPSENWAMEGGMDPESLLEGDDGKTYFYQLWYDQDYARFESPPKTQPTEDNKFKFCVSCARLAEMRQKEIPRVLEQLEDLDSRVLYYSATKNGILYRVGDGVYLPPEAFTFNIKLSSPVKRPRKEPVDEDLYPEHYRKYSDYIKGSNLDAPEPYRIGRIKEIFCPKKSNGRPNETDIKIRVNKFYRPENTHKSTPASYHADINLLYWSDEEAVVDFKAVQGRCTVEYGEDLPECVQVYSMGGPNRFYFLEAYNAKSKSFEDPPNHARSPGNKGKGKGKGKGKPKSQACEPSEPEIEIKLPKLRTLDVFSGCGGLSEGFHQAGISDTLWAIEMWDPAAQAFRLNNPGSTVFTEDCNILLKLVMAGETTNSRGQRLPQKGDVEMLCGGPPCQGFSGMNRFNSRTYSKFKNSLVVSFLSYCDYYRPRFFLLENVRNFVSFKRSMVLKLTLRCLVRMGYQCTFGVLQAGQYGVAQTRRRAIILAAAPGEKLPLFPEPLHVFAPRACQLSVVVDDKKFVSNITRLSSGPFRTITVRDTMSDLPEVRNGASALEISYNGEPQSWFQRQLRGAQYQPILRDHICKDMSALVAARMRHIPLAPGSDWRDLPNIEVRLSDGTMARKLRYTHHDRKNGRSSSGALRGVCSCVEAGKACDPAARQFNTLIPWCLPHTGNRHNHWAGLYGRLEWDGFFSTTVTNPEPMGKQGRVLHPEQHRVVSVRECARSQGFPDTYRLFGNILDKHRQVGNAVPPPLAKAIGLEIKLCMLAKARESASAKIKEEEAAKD

SMILES	DNMT1 BioChemical (pIC50 category) [1, 3]	EC50 [2] [nM]	IC50 [1, 4] [nM]	IC50 [1, 5]
CCc1c(C#N)c(SC(C(N)=O)c2ccccc2)nc(N2CC(OC(N)=O)C2)c1C#N (centres unmarked) [Example 259, 1-(6-((2-Amino-2-oxo-1-phenylethylthio-3,5-dicyano-4-ethylpyridin-2-yl)azetidin-3-yl carbamate]	D (Category D: ≥6.5)	316 to 1000		
CCc1c(C#N)c(SC(C(N)=O)c2ccccc2)nc(N(C)CCN(C)C)c1C#N (centres unmarked) [Example 493, 2-((3,5-dicyano-6-((2-(dimethylamino)ethyl)(methyl)amino)-4-ethylpyridin-2-yl)thio)-2-phenylacetamide]	D (Category D: ≥6.5)	316 to 1000		
CCc1c(C#N)c(SC(C(N)=O)c2ccccc2)nc(N2CC(COC(=O)[C@@H](N)C(C)C)C2)c1C#N (some centres unmarked) [Example 277]	D (Category D: ≥6.5)	1000 to 31600		
CCc1c(C#N)c(SCc2ccc(B(O)O)cc2)nc(N2CCCN(C)CC2)c1C#N [Example 357, 4-((3,5-Dicyano-4-ethyl-6-(4-methyl-1,4-diazepan-1-yl)pyridin-2-ylthio)methyl)phenylboronic acid]		> 31600	316 to 1000	
CCc1c(C#N)c(SC(C(N)=O)c2ccccc2)nc(N(C)CCN(CC)CC)c1C#N (centres unmarked) [Example 515, 2-((3,5-dicyano-6-((2-(diethylamino)ethyl)(methyl)amino)-4-ethylpyridin-2-yl)thio)-2-phenylacetamide]	D (Category D: ≥6.5)	< 316		
CCc1c(C#N)c(SC(C(N)=O)c2ccccc2)nc(N(C)CC(=O)N2CCOCC2)c1C#N (centres unmarked) [Example 623, 2-((3,5-dicyano-4-ethyl-6-(methyl(2-morpholino-2-oxoethyl)amino)pyridin-2-yl)thio)-2-phenylacetamide]	D (Category D: ≥6.5)	< 316		
CCc1c(C#N)c(SC(C(N)=O)c2ccccc2)nc(N2CCN(Cc3cnc[nH]3)CC2)c1C#N (centres unmarked) [Example 188, 2-((6-(4-((1H-lmidazol-5-yl)methyl)piperazin-1-yl)-3,5-dicyano-4-ethylpyridin-2-yl)thio)-2-phenylacetamide]		1000 to 31600	316 to 1000	
CCc1c(C#N)c(SC(C(N)=O)c2ccccc2)nc(N2CCC(OCCO)CC2)c1C#N (centres unmarked) [Example 224, 2-((3,5-Dicyano-4-ethyl-6-(4-(2-hydroxyethoxy)piperidin-1-yl)pyridin-2-yl)thio)-2-phenylacetamide]		316 to 1000	316 to 1000	
CCc1c(C#N)c(SCc2ccc(N3CCCCS3(=O)=O)cc2)nc(N2CCC(NCC(C)(C)C)CC2)c1C#N [Example 604, 2-((4-(1,1-dioxido-1,2-thiazinan-2-yl)benzyl)thio)-4-ethyl-6-(4-(neopentylamino)piperidin-1-yl)pyridine-3,5-dicarbonitrile]	D (Category D: ≥6.5)	> 31600		
CCc1c(C#N)c(SC(C(N)=O)c2ccc(C)cn2)nc(N2CCCN(C)CC2)c1C#N (centres unmarked) [Example 205, 2-((3,5-Dicyano-4-ethyl-6-(4-methyl-1,4-diazepan-1-yl)pyridin-2-yl)thio)-2-(5-methylpyridin-2-yl)acetamide]	D (Category D: ≥6.5)	< 316		
CCc1c(C#N)c(SC(C(N)=O)c2ccccc2)nc(N(C)CCN2CCNCC2)c1C#N (centres unmarked) [Example 167, 2-((3,5-Dicyano-4-ethyl-6-(methyl(2-(piperazin-1-yl)ethyl)amino)pyridin-2-yl)thio)-2-phenylacetamide]	D (Category D: ≥6.5)	< 316		
N#Cc1c(SC(C(N)=O)c2ccccc2)nc(N2CC(NC(=O)[C@H](N)CO)C2)c(C#N)c1C1CC1 (stereo partly drawn) [Example 614, (2R)-2-amino-N-(1-(6-((2-amino-2-oxo-1-phenylethyl)thio)-3,5-dicyano-4-cyclopropylpyridin-2-yl)azetidin-3-yl)-3-hydroxypropanamide]	D (Category D: ≥6.5)	1000 to 31600		
CCc1c(C#N)c(SC(C(N)=O)c2ccccc2)nc(N(C)CCN2CCC(O)(CN)CC2)c1C#N (centres unmarked) [Example 170, 2-((6-((2-(4-(Aminomethyl)-4-hydroxypiperidin-1-yl)ethyl)(methyl)amino)-3,5-dicyano-4-ethylpyridin-2-yl)thio)-2-phenylacetamide]	D (Category D: ≥6.5)	1000 to 31600		
CCc1c(C#N)c(SC(C(N)=O)c2ccccc2)nc(N(C)CC(=O)N2C[C@@H](CO)[C@@H](O)C2)c1C#N (stereo partly drawn) [Example 637, 2-((3,5-dicyano-4-ethyl-6-((2-((3R,4S)-3-hydroxy-4-(hydroxymethyl)pyrrolidin-1-yl)-2-oxoethyl)(methyl)amino)pyridin-2-yl)thio)-2-phenylacetamide]	D (Category D: ≥6.5)	1000 to 31600		
CCc1c(C#N)c(SC(C(N)=O)c2ccc(F)c(F)c2)nc(N2CCC(N(C)C)CC2)c1C#N (centres unmarked) [Example 216, 2-((3,5-Dicyano-6-(4-(dimethylamino)piperidin-1-yl)-4-ethylpyridin-2-yl)thio)-2-(3,4-difluorophenyl)acetamide]		< 316	1000 to 31600	≥ 1000 nM and 1580 nM
CCc1c(C#N)c(SC(C(N)=O)c2ccccc2)nc(N2CCC(ONC(=N)N)CC2)c1C#N (centres unmarked) [Example 634, 2-((3,5-dicyano-4-ethyl-6-(4-(guanidinooxy)piperidin-1-yl)pyridin-2-yl)thio)-2-phenylacetamide]	D (Category D: ≥6.5)	1000 to 31600		
CCc1c(C#N)c(SC(C(N)=O)c2ccccc2)nc(N2CCC(N3CCC[C@H]3C)CC2)c1C#N (stereo partly drawn) [Example 451, 2-((3,5-dicyano-4-ethyl-6-(4-((R)-2-methylpyrrolidin-1-yl)piperidin-1-yl)pyridin-2-yl)thio)-2-phenylacetamide]	D (Category D: ≥6.5)	< 316		
CN(CCO)c1nc(SC(C(N)=O)c2ccccc2)c(C#N)c(C2CC2)c1C#N (centres unmarked) [Example 386, 2-((3,5-Dicyano-4-cyclopropyl-6-((2-hydroxyethyl)(methyl)amino)pyridin-2-yl)thio)-2-phenylacetamide]		1000 to 31600	316 to 1000	
CCc1c(C#N)c(SC(C(N)=O)c2ccccc2)nc(N2CCNCC(F)C2)c1C#N (centres unmarked) [Example 381, 2-((3,5-Dicyano-4-ethyl-6-(16-fluoro-1,4-diazepan-1-yl)pyridin-2-yl)thio)-2-phenylacetamide]		1000 to 31600	316 to 1000	
CCc1c(C#N)c(SC(C(N)=O)c2ccccc2)nc(N(C)CCN2CCCC2)c1C#N (centres unmarked) [Example 511, 2-((3,5-dicyano-4-ethyl-6-(methyl(2-(pyrrolidin-1-yl)ethyl)amino)pyridin-2-yl)thio)-2-phenylacetamide]	D (Category D: ≥6.5)	< 316		
CCc1c(C)c(N2CCC(N)CC2)nc(SC(C(N)=O)c2ccccc2)c1C#N (centres unmarked) [Example 376, 2-(6-(4-Aminopiperidin-1-yl)-3-cyano-4-ethyl-5-methylpyridin-2-ylthio)-2-phenylacetamide]		316 to 1000	316 to 1000	
CCc1c(C#N)c(SCc2ccc(CC(=O)O)cc2)nc(N2CCCN(C)CC2)c1C#N [Example 72, 2-(4-(((3,5-Dicyano-4-ethyl-6-(4-methyl-1,4-diazepan-1-yl)pyridin-2-yl)thio)methyl)phenyl)acetic acid]		> 31600	1000 to 31600	≥ 1000 nM and 2000 nM
CCc1c(C#N)c(SC(C(N)=O)c2ccccc2)nc(N2CCC(N)C(F)(F)C2)c1C#N (centres unmarked) [Example 382, 2-((6-(4-Amino-3,3-difluoropiperidin-1-yl)-3,5-dicyano-4-ethylpyridin-2-yl)thio)-2-phenylacetamide]	D (Category D: ≥6.5)	< 316		
CCc1c(C#N)c(SC(C(N)=O)c2ccccc2)nc(N(C)CC(=O)NCC(C)(C)CO)c1C#N (centres unmarked) [Example 685, 2-((6-((2-amino-2-oxo-1-phenylethyl)thio)-3,5-dicyano-4-ethylpyridin-2-yl)(methyl)amino)-N-(3-hydroxy-2,2-dimethylpropyl)acetamide]	D (Category D: ≥6.5)	316 to 1000		316 to 1000 nM and 316 nM
CCc1c(C#N)c(SC(C(N)=O)c2ccc(F)cc2)nc(N2CCC(N3CCCC3)CC2)c1C#N (centres unmarked) [Example 505, 2-((3,5-dicyano-4-ethyl-6-(4-(pyrrolidin-1-yl)piperidin-1-yl)pyridin-2-yl)thio)-2-(4-fluorophenyl)acetamide]	D (Category D: ≥6.5)	< 316		
CCc1c(C#N)c(SC(C(N)=O)c2ccc(CC(N)=O)cc2)nc(N2CCCN(C)CC2)c1C#N (centres unmarked) [Example 400, 2-(4-(2-Amino-2-oxoethyl)phenyl)-2-(3,5-dicyano-4-ethyl-6-(4-methyl-1,4-diazepan-1-yl)pyridin-2-ylthio)acetamide]	D (Category D: ≥6.5)	1000 to 31600		
CCc1c(C#N)c(SC(C(N)=O)c2ccccc2)nc(N(C)CCNC)c1C#N (centres unmarked) [Example 470, 2-((3,5-dicyano-4-ethyl-6-(methyl(2-(methylamino)ethyl)amino)pyridin-2-yl)thio)-2-phenylacetamide]	D (Category D: ≥6.5)	< 316		
CCc1c(C#N)c(SC(C(N)=O)c2ccccc2)nc(N(C)CC(=O)N2CC[C@H](O)C2)c1C#N (stereo partly drawn) [Example 616, 2-((3,5-dicyano-4-ethyl-6-((2-((S)-3-hydroxypyrrolidin-1-yl)-2-oxoethyl)(methyl)amino)pyridin-2-yl)thio)-2-phenylacetamide]	D (Category D: ≥6.5)	< 316		

Reference: patent US10975056B2 (GlaxoSmithKline Intellectual Property Development Limited, priority 2016, dated 2021)
